Source: patent publication US20180200257A1, “METHODS FOR THE TREATMENT OF INFLAMMATORY DISORDERS” (Galapagos NV, priority 2015, published 2018)

Tested on: subjects with moderately to severely active RA who have an inadequate response to methotrexate (MTX)
Assay: Study 1 (add-on to MTX) - Alanine Aminotransferase (ALT) levels
Format: in vivo, human
Settings: 24 weeks results
Protocol: Double-blind, placebo-controlled add on study in subjects with moderately to severely active RA who have an inadequate response to methotrexate (MTX) (oral or parenteral).
595 subjects randomized to one of 6 dose regimens of Compound 1 (dosed as [Compound 1:HCl:3H2O]) (3 dose levels administered either once or twice daily) or placebo on top of each subject's stable dose of MTX.
Compound 1 (dosed as [Compound 1:HCl:3H2O]) is dosed for twelve weeks once daily (q.d.) (50 mg, 100 mg or 200 mg) or twice daily (b.i.d.) (25 mg, 50 mg or 100 mg); or placebo.
At Week 12, the subjects on placebo who have not achieved 20% improvement in swollen joint count (SJC66) and tender joint count (TJC68) are re-randomized automatically to receive Compound 1 (dosed as a [Compound 1:HCl:3H2O]) either at 100 mg q.d. or 50 mg b.i.d. doses in a blinded fashion; subjects on 50 mg q.d. who have not achieved 20% improvement in SJC66 and TJC68 will be assigned to 100 mg q.d. and subjects on 25 mg b.i.d. that have not achieved a 20% improvement in SJC66 and TJC68 will be assigned to 50 mg b.i.d. Subjects who switch treatment at week 12 are handled as if they discontinued at week 12 for the purpose of statistical analysis, whereas subjects in the other groups will maintain their randomized treatment until Week 24.
ALT levels determination is available at Quest Diagnostics, Clinical Trials, Quest House, 125-135 Staines Road, Hounslow, Middlesex, TW3 3JB, United Kingdom under Catalogue n#84460.
ALT catalyzes the exchange of the amino group of alanine with the oxogroup of 2-ketoglutarate to form pyruvate and glutamate. In the presence of lactic dehydrogenase, pyruvate reacts with NADH to form NAD+, measured spectrophotometrically. Guidelines for the ALT value have been issued by the association for Clinical Biochemistry and Laboratory Medicine, 130-132 Tooley Street LONDON SE1 2TU, united Kingdom, wherein the ALT value should be below 34 U/l in Female and below 52 U/L in male.

[1] = continued 100 mg b.i.d., week 1
[2] = continued 100 mg b.i.d., week 2
[3] = continued 100 mg b.i.d., week 4
[4] = continued 100 mg b.i.d., week 8
[5] = continued 100 mg b.i.d., week 12
[6] = continued 100 mg b.i.d., week 16
[7] = continued 100 mg b.i.d., week 20
[8] = continued 100 mg b.i.d., week 24
[9] = from 25 mg b.i.d. to 50 mg b.i.d. at 12 weeks, week 1
[10] = from 25 mg b.i.d. to 50 mg b.i.d. at 12 weeks, week 2
[11] = from 25 mg b.i.d. to 50 mg b.i.d. at 12 weeks, week 4
[12] = from 25 mg b.i.d. to 50 mg b.i.d. at 12 weeks, week 8
[13] = from 25 mg b.i.d. to 50 mg b.i.d. at 12 weeks, week 12
[14] = from 25 mg b.i.d. to 50 mg b.i.d. at 12 weeks, week 16
[15] = from 25 mg b.i.d. to 50 mg b.i.d. at 12 weeks, week 20
[16] = from 25 mg b.i.d. to 50 mg b.i.d. at 12 weeks, week 24
[17] = from 50 mg q.d. to 100 mg q.d. at 12 weeks, week 1
[18] = from 50 mg q.d. to 100 mg q.d. at 12 weeks, week 2
[19] = from 50 mg q.d. to 100 mg q.d. at 12 weeks, week 4
[20] = from 50 mg q.d. to 100 mg q.d. at 12 weeks, week 8
[21] = from 50 mg q.d. to 100 mg q.d. at 12 weeks, week 12
[22] = from 50 mg q.d. to 100 mg q.d. at 12 weeks, week 16
[23] = from 50 mg q.d. to 100 mg q.d. at 12 weeks, week 20
[24] = from 50 mg q.d. to 100 mg q.d. at 12 weeks, week 24
[25] = placebo switched to 50 mg b.i.d. at week 12, week 16
[26] = placebo switched to 50 mg b.i.d. at week 12, week 20
[27] = placebo switched to 50 mg b.i.d. at week 12, week 24
[28] = placebo switched to 100 mg q.d. at week 12, week 16
[29] = placebo switched to 100 mg q.d. at week 12, week 20
[30] = placebo switched to 100 mg q.d. at week 12, week 24

Structure (SMILES): O=C(Nc1nc2cccc(-c3ccc(CN4CCS(=O)(=O)CC4)cc3)n2n1)C1CC1 [Compound 1, cyclopropanecarboxylic acid {5-[4-(1,1-dioxo-thiomorpholin-4-ylmethyl)-phenyl]-[1,2,4]triazolo[1,5-a]pyridin-2-yl}-amide]
- Study 1 - ALT Mean CFB (continued 50 mg q.d., week 12): 0.5 IU/L
- Study 1 - ALT Mean percentage CFB (continued 50 mg q.d., week 12): 13.8%
- Study 1 - ALT Mean CFB (continued 50 mg q.d., week 16): 1.1 IU/L
- Study 1 - ALT Mean percentage CFB (continued 50 mg q.d., week 16): 18.1%
- Study 1 - ALT Mean CFB (continued 50 mg q.d., week 20): 2.2 IU/L
- Study 1 - ALT Mean percentage CFB (continued 50 mg q.d., week 20): 22.1%
- Study 1 - ALT Mean CFB (continued 50 mg q.d., week 24): 1.7 IU/L
- Study 1 - ALT Mean percentage CFB (continued 50 mg q.d., week 24): 19.4%
- Study 1 - ALT Mean CFB [1]: 0.5 IU/L
- Study 1 - ALT Mean percentage CFB [1]: 8.8%
- Study 1 - ALT Mean CFB [2]: 0.8 IU/L
- Study 1 - ALT Mean percentage CFB [2]: 10.4%
- Study 1 - ALT Mean CFB [3]: 0.8 IU/L
- Study 1 - ALT Mean percentage CFB [3]: 20.4%
- Study 1 - ALT Mean CFB [4]: 0.6 IU/L
- Study 1 - ALT Mean percentage CFB [4]: 24.5%
- Study 1 - ALT Mean CFB [5]: 1.7 IU/L
- Study 1 - ALT Mean percentage CFB [5]: 26.0%
- Study 1 - ALT Mean CFB [6]: 3.2 IU/L
- Study 1 - ALT Mean percentage CFB [6]: 32.4%
- Study 1 - ALT Mean CFB [7]: 2.8 IU/L
- Study 1 - ALT Mean percentage CFB [7]: 34.2%
- Study 1 - ALT Mean CFB [8]: 4.0 IU/L
- Study 1 - ALT Mean percentage CFB [8]: 47.8%
- Study 1 - ALT Mean CFB (continued 100 mg q.d., week 1): 3.0 IU/L
- Study 1 - ALT Mean percentage CFB (continued 100 mg q.d., week 1): 13.6%
- Study 1 - ALT Mean CFB (continued 100 mg q.d., week 2): 0.9 IU/L
- Study 1 - ALT Mean percentage CFB (continued 100 mg q.d., week 2): 8.8%
- Study 1 - ALT Mean CFB (continued 100 mg q.d., week 4): 0.6 IU/L
- Study 1 - ALT Mean percentage CFB (continued 100 mg q.d., week 4): 9.1%
- Study 1 - ALT Mean CFB (continued 100 mg q.d., week 8): 1.7 IU/L
- Study 1 - ALT Mean percentage CFB (continued 100 mg q.d., week 8): 15.1%
- Study 1 - ALT Mean CFB (continued 100 mg q.d., week 12): 1.6 IU/L
- Study 1 - ALT Mean percentage CFB (continued 100 mg q.d., week 12): 15.6%
- Study 1 - ALT Mean CFB (continued 100 mg q.d., week 16): 0.7 IU/L
- Study 1 - ALT Mean percentage CFB (continued 100 mg q.d., week 16): 9.5%
- Study 1 - ALT Mean CFB (continued 100 mg q.d., week 20): 1.8 IU/L
- Study 1 - ALT Mean percentage CFB (continued 100 mg q.d., week 20): 19.8%
- Study 1 - ALT Mean CFB (continued 100 mg q.d., week 24): 5.1 IU/L
- Study 1 - ALT Mean percentage CFB (continued 100 mg q.d., week 24): 39.5%
- Study 1 - ALT Mean CFB (continued 200 mg q.d., week 1): 2.3 IU/L
- Study 1 - ALT Mean percentage CFB (continued 200 mg q.d., week 1): 11.4%
- Study 1 - ALT Mean CFB (continued 200 mg q.d., week 2): 1.4 IU/L
- Study 1 - ALT Mean percentage CFB (continued 200 mg q.d., week 2): 15.5%
- Study 1 - ALT Mean CFB (continued 200 mg q.d., week 4): 1.1 IU/L
- Study 1 - ALT Mean percentage CFB (continued 200 mg q.d., week 4): 15.1%
- Study 1 - ALT Mean CFB (continued 200 mg q.d., week 8): 3.9 IU/L
- Study 1 - ALT Mean percentage CFB (continued 200 mg q.d., week 8): 31.1%
- Study 1 - ALT Mean CFB (continued 200 mg q.d., week 12): 3.4 IU/L
- Study 1 - ALT Mean percentage CFB (continued 200 mg q.d., week 12): 33.9%
- Study 1 - ALT Mean CFB (continued 200 mg q.d., week 16): 4.7 IU/L
- Study 1 - ALT Mean percentage CFB (continued 200 mg q.d., week 16): 43.8%
- Study 1 - ALT Mean CFB (continued 200 mg q.d., week 20): 2.9 IU/L
- Study 1 - ALT Mean percentage CFB (continued 200 mg q.d., week 20): 32.9%
- Study 1 - ALT Mean CFB (continued 200 mg q.d., week 24): 5.4 IU/L
- Study 1 - ALT Mean percentage CFB (continued 200 mg q.d., week 24): 47.5%
- Study 1 - ALT Mean CFB [9]: −7.8 IU/L
- Study 1 - ALT Mean percentage CFB [9]: −16.4%
- Study 1 - ALT Mean CFB [10]: −7.3 IU/L
- Study 1 - ALT Mean percentage CFB [10]: −12.0%
- Study 1 - ALT Mean CFB [11]: −5.6 IU/L
- Study 1 - ALT Mean percentage CFB [11]: 0.0%
- Study 1 - ALT Mean CFB [12]: −8.3 IU/L
- Study 1 - ALT Mean percentage CFB [12]: −16.4%
- Study 1 - ALT Mean CFB [13]: −6.4 IU/L
- Study 1 - ALT Mean percentage CFB [13]: −5.8%
- Study 1 - ALT Mean CFB [14]: −7.9 IU/L
- Study 1 - ALT Mean percentage CFB [14]: −9.7%
- Study 1 - ALT Mean CFB [15]: −5.4 IU/L
- Study 1 - ALT Mean percentage CFB [15]: 5.9%
- Study 1 - ALT Mean CFB [16]: −4.8 IU/L
- Study 1 - ALT Mean percentage CFB [16]: 5.7%
- Study 1 - ALT Mean CFB [17]: 0.4 IU/L
- Study 1 - ALT Mean percentage CFB [17]: 0.9%
- Study 1 - ALT Mean CFB [18]: −1.4 IU/L
- Study 1 - ALT Mean percentage CFB [18]: −6.5%
- Study 1 - ALT Mean CFB [19]: −0.3 IU/L
- Study 1 - ALT Mean percentage CFB [19]: 2.2%
- Study 1 - ALT Mean CFB [20]: −0.2 IU/L
- Study 1 - ALT Mean percentage CFB [20]: 3.6%
- Study 1 - ALT Mean CFB [21]: −0.1 IU/L
- Study 1 - ALT Mean percentage CFB [21]: 5.2%
- Study 1 - ALT Mean CFB [22]: −2.3 IU/L
- Study 1 - ALT Mean percentage CFB [22]: −9.8%
- Study 1 - ALT Mean CFB [23]: −1.7 IU/L
- Study 1 - ALT Mean percentage CFB [23]: −3.7%
- Study 1 - ALT Mean CFB [24]: −3.0 IU/L
- Study 1 - ALT Mean percentage CFB [24]: −8.7%
- Study 1 - ALT Mean CFB [25]: 0.5 IU/L
- Study 1 - ALT Mean percentage CFB [25]: 1.1%
- Study 1 - ALT Mean CFB [26]: 0.7 IU/L
- Study 1 - ALT Mean percentage CFB [26]: 0.7%
- Study 1 - ALT Mean CFB [27]: 1.0 IU/L
- Study 1 - ALT Mean percentage CFB [27]: 6.8%
- Study 1 - ALT Mean CFB [28]: −1.3 IU/L
- Study 1 - ALT Mean percentage CFB [28]: 0.4%
- Study 1 - ALT Mean CFB [29]: 0.5 IU/L
- Study 1 - ALT Mean percentage CFB [29]: 5.9%
- Study 1 - ALT Mean CFB [30]: −0.1 IU/L
- Study 1 - ALT Mean percentage CFB [30]: 10.0%
